# In paper PMC12615518, “Discovery of CRBN-recruiting PROTAC degraders of the METTL3-METTL14 complex” (Medicinal Chemistry Research, 2025):
# Entries after “also recorded” stand apart in the source; their conditions may differ.
# Columns and labels:
# METTL3-METTL14 complex = molecular target: T1, METTL3-METTL14 complex (Homo sapiens, UniProt Q86U44); test: Washout experiment in MV4-11 cells, Western blot; format: cell-based; conditions: 1 µM for 20 h, then drug withdrawal 0 to 24 h
# T1 construct: endogenous in cells; host or cells: MV4-11 human AML cells, ATCC
# Protocol: To further characterize this compound, MV4-11 AML cells were treated with ZW30441 across a range of concentrations for 24 h.
# Fig. 3 ZW30441 induced degradation of METTL3 and METTL14 in a dose- and time-dependent manner. […] METTL3 and METTL14 protein levels were normalized against ACTIN and plotted for DC50 and Dmax determination (right). B The levels of METTL3 and METTL14 protein in MV4-11 cells were analyzed by Western blots after the treatment of 1 µM of ZW30441 for various durations. C METTL3 and METTL14 protein levels were analyzed by Western blots in MV4-11 cells after treatment with 1 µM of ZW30441 for 20 h followed by drug withdrawal and cultured without ZW30441 for 0 to 24 h, as indicated TEXT PRINTED IN THE PICTURE: (A) ZW30441: METTL3 levels: DC50=0.44 uM; METTL3 levels: Dmax= 68.7%; METTL14 levels: DC50=0.13 uM; METTL14 levels: Dmax= 74.1% DOUBTS OF THE COPYIST ABOUT THIS PICTURE: ZW30441, panel A, axis title of the right plot: last letter unclear, 'METTL14 levels' or 'METTL14 levela'
# Western Blot Analysis: Following treatment, total cellular proteins were extracted using RIPA buffer (Auragene, Changsha, China). Equal amounts of protein were separated by 12% SDS-PAGE and transferred onto PVDF membranes (Thermo Fisher, USA, LC2002). […] Band intensities were quantified using ImageJ software and normalized to ACTIN as a loading control. Data was analyzed using GraphPad Prism 9. […]
# METTL3 = METTL3 (Homo sapiens, UniProt Q86U44); test: Mechanism study: METTL3 Western blot in HEK293T cells after pretreatment with proteasome inhibitors or CRBN ligand; format: cell-based; design: endogenous in cells; conditions: then ZW30441 2.5 µM for 24 h
# Protocol: We next explored the mechanisms of ZW30441-induced METTL3-METTL14 degradation. HEK293T cells were pretreated with the proteasome inhibitors bortezomib (0.1 µM) or MG132 (1 µM) for 2 h before ZW30441 (2.5 µM) administration (Fig. 4A).
# Fig. 4 ZW30441 induced METTL3-METTL14 complex degradation through the ubiquitin-proteasome system and affected the survival of human AML cell lines. A Western blot analysis of METTL3 expression in HEK293T cells after pretreatment with the CRBN ligand pomalidomide (10 µM) or the proteasome inhibitors bortezamib (0.1 µM) or MG132 (1 µM) for 2 h, followed by treatment with ZW30441 (2.5 µM) for 24 h (left). Western blot analysis of METTL3 and METTL14 levels in MV4-11 cells after treatment with UHZ2, ZW30441, and the negative control ZW30441NC at the indicated concentration for 24 h (right). B Cell viability study of ZW30441 in MOLM13 and MV4-11 cell lines (left). […]
# Western Blot Analysis: Following treatment, total cellular proteins were extracted using RIPA buffer (Auragene, Changsha, China). […] Band intensities were quantified using ImageJ software and normalized to ACTIN as a loading control. Data was analyzed using GraphPad Prism 9. Degradation efficiency was evaluated by calculating DC₅₀, the drug concentration required to reduce target protein levels by 50%, and Dₘₐₓ, the maximum level of degradation observed across all tested concentrations.
# METTL3, sequence (Q86U44 2-580 limits assumed): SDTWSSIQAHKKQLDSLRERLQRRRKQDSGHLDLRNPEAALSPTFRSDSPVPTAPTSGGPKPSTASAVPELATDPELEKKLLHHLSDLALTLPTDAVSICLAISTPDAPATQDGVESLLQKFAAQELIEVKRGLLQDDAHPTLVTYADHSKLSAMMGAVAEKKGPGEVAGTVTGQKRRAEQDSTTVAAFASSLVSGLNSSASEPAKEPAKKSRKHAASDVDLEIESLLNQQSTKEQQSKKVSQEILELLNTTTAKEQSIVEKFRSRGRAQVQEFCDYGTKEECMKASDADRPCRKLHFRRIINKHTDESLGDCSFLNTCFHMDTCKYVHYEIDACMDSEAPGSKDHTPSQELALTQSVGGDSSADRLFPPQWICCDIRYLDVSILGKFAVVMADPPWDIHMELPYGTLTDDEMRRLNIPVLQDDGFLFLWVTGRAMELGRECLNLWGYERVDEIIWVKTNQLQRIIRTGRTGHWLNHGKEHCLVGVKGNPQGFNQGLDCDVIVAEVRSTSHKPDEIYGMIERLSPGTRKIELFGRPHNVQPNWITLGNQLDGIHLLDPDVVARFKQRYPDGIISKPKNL
# METTL3, sequence (Q9HCE5 whole entry partner): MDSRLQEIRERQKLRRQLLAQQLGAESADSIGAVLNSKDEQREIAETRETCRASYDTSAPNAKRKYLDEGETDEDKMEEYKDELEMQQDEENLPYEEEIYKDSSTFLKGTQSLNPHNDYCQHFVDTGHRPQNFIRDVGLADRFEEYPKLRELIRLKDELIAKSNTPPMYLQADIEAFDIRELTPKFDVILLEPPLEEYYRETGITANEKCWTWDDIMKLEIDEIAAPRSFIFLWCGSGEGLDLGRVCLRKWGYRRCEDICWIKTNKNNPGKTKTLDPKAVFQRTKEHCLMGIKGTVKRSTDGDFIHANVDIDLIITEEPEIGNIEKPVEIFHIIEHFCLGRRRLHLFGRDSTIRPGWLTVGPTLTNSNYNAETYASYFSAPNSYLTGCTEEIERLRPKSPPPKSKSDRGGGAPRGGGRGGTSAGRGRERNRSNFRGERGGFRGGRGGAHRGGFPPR
# T1 sequence (Q86U44 2-580 limits assumed): as the sequence (Q86U44 2-580 limits assumed) above
# T1 sequence (Q9HCE5 whole entry partner): as the sequence (Q9HCE5 whole entry partner) above
structure (smiles),measurement,setting,value
"CC1(C)CCN(Cc2cc(F)c(N3CC(=O)NC4(CCN(c5cc(NCCCCCCCCCC(=O)N6CCN(c7ccc8c(c7)CN(C7CCC(=O)NC7=O)C8=O)CC6)ncn5)CC4)C3)cc2F)CC1 (stereo not drawn) [Compound 4j, 3-(5-(4-(10-((6-(4-(4-((4,4-dimethylpiperidin-1-yl)methyl)-2,5-difluorophenyl)-2-oxo-1,4,9-triazaspiro[5.5]undecan-9-yl)pyrimidin-4-yl)amino)decanoyl)piperazin-1-yl)-1-oxoisoindolin-2-yl)piperidine-2,6-dione]",duration of degradation after removal of compound (washout),METTL3-METTL14 complex,around 24 h
same,METTL3 degradation after pretreatment with proteasome inhibitors,METTL3; bortezomib (0.1 µM) or MG132 (1 µM) for 2 h,effectively blocked; also recorded: abrogated
same,METTL3 degradation after pretreatment with CRBN ligand pomalidomide,METTL3; pomalidomide 10 µM for 2 h,significantly reduced; also recorded: abrogated
